Test results as given in ChEMBL document CHEMBL2440005, “Discovery and structure-activity relationships of 6-(benzoylamino)benzoxaboroles as orally active anti-inflammatory agents” (Bioorg Med Chem Lett, 2013).
Calls of active or inactive are those of the source. No cut-off for these calls is given here.

What was measured:
Mus musculus [1] = assay: Antiinflammatory activity in mouse assessed as inhibition of LPS-induced IL-6 production at 100 mg/kg, po administered 1 hr prior to LPS challenge measured after 1 hr; type: functional, organism-based; parameters: dose 100 mg/kg
[2] = biological target: Tyrosine-protein kinase JAK3 (Homo sapiens) (UniProt P52333); assay: Inhibition of JAK3 (unknown origin) at 30 uM
[3] = biological target: RAC-alpha serine/threonine-protein kinase (Homo sapiens) (UniProt P31749); assay: Inhibition of AKT1 (unknown origin) at 30 uM
Chain of RAC-alpha serine/threonine-protein kinase (Homo sapiens) (P31749 whole entry): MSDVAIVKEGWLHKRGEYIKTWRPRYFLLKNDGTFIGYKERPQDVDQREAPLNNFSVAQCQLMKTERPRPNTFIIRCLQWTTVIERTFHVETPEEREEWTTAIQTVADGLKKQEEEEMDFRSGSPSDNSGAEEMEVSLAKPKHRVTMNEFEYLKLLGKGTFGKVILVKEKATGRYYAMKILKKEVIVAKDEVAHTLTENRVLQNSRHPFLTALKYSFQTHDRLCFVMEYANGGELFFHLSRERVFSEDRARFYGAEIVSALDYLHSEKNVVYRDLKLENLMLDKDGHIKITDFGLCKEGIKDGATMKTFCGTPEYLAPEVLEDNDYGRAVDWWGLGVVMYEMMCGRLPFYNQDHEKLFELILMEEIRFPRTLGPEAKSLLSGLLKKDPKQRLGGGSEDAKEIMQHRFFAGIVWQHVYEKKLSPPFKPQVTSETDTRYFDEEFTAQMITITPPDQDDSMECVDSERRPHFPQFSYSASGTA

[4] = Clearance in mouse at 2 mg/kg, iv; type: ADME, organism-based; parameters: dose 2 mg/kg, route intravenous; details: in vivo
Mus musculus [5] = assay: Antiinflammatory activity in collagen-induced arthritis mouse model at 30 mg/kg, po qd administered every other day for 20 days relative to vehicle-treated control; type: functional; details: 480 h
[6] = biological target: Mitogen-activated protein kinase 12 (Homo sapiens) (UniProt P53778); assay: Inhibition of p38gamma (unknown origin) at 30 uM
Chain of Mitogen-activated protein kinase 12 (Homo sapiens) (P53778 whole entry): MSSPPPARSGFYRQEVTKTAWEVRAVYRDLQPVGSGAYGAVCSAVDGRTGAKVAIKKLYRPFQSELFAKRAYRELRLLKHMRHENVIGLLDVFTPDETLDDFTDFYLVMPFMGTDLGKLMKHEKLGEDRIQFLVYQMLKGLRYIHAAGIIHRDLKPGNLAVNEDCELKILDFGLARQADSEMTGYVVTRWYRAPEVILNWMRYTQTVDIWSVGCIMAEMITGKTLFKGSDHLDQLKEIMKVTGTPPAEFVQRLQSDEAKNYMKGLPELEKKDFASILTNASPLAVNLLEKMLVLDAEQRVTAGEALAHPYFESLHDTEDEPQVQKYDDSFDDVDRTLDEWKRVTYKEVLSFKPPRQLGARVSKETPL

[7] = biological target: Mitogen-activated protein kinase 11 (Homo sapiens) (UniProt Q15759); assay: Inhibition of p38beta (unknown origin) at 30 uM
Mus musculus [8] = assay: Antiinflammatory activity in mouse assessed as inhibition of LPS-induced IL-6 production at 30 mg/kg, po administered 1 hr prior to LPS challenge measured after 1 hr; type: functional
[9] = biological target: Tyrosine-protein kinase JAK1 (Homo sapiens) (UniProt P23458); assay: Inhibition of JAK1 (unknown origin) at 30 uM
[10] = biological target: Protein kinase C beta type (Homo sapiens) (UniProt P05771); assay: Inhibition of PKCbeta (unknown origin) at 30 uM
[11] = biological target: Inhibitor of nuclear factor kappa-B kinase subunit beta (Homo sapiens) (UniProt O14920); assay: Inhibition of IKKbeta (unknown origin) at 30 uM
[12] = biological target: MAP kinase-activated protein kinase 3 (Homo sapiens) (UniProt Q16644); assay: Inhibition of MAPKAPK3 (unknown origin) at 30 uM
Chain of MAP kinase-activated protein kinase 3 (Homo sapiens) (Q16644 whole entry, looked up): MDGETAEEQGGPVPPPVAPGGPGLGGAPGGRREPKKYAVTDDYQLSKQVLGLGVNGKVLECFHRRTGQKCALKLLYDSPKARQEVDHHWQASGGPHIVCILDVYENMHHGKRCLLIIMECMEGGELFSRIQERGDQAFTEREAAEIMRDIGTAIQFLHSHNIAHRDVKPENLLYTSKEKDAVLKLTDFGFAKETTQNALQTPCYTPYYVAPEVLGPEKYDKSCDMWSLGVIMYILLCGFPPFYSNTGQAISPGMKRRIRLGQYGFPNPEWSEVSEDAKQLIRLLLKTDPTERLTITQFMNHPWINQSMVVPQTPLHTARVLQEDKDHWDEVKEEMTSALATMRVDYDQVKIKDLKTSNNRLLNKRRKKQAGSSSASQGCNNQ

[13] = biological target: Dual specificity mitogen-activated protein kinase kinase 1 (Homo sapiens) (UniProt Q02750); assay: Inhibition of MEK1 (unknown origin) at 30 uM
Chain of Dual specificity mitogen-activated protein kinase kinase 1 (Homo sapiens) (Q02750 whole entry, canonical isoform): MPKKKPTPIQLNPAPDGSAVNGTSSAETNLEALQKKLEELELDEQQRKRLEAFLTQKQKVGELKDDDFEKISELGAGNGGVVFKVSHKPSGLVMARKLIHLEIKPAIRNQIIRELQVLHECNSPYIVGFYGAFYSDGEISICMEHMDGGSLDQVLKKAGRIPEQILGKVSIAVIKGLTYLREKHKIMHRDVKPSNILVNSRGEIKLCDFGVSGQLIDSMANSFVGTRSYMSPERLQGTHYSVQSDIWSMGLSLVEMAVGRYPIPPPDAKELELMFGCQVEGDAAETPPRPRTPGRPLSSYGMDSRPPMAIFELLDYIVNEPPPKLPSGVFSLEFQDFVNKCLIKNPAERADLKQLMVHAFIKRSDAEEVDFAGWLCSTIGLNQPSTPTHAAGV

[14] = biological target: Phosphatidylinositol 4,5-bisphosphate 3-kinase catalytic subunit delta isoform (Homo sapiens) (UniProt O00329); assay: Inhibition of PI3Kdelta (unknown origin) at 30 uM
Chain of Phosphatidylinositol 4,5-bisphosphate 3-kinase catalytic subunit delta isoform (Homo sapiens) (O00329 whole entry, canonical isoform): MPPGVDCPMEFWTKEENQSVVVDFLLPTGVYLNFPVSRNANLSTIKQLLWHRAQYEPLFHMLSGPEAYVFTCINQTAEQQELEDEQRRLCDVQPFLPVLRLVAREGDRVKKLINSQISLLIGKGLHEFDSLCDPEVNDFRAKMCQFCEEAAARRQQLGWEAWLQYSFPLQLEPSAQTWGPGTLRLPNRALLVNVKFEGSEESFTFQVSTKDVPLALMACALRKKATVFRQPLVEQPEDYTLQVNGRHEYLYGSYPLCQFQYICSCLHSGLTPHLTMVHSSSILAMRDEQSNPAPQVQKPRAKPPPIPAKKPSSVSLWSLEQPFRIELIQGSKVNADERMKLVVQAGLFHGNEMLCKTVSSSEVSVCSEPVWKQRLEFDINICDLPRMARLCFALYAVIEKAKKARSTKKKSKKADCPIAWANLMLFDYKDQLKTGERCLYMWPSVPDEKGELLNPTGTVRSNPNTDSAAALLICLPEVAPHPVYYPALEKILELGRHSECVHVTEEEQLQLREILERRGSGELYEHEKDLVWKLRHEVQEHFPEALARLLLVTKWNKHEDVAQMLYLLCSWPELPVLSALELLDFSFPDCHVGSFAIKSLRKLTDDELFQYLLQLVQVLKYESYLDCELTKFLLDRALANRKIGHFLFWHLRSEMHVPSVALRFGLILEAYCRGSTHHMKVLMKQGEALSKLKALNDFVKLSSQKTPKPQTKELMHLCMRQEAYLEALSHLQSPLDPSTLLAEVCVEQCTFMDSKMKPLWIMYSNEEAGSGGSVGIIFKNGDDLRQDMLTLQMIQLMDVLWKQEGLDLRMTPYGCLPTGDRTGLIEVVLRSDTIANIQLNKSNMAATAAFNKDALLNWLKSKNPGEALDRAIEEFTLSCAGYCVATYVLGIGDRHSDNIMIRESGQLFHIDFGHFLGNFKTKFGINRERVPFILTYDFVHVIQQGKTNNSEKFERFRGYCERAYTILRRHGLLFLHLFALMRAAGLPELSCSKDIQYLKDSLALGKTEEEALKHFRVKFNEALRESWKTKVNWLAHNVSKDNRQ

Mus musculus [15] = assay: Antiinflammatory activity in po dosed mouse assessed as inhibition of LPS-induced IL-6 production administered 1 hr prior to LPS challenge measured after 1 hr; type: functional, organism-based
[16] = Terminal half life in mouse at 4 mg/kg, po; type: ADME, organism-based; parameters: dose 4 mg/kg, route oral; details: in vivo, read-out: beta t1/2 (converted)
[17] = biological target: Prostaglandin G/H synthase 1 (Homo sapiens) (UniProt P23219); assay: Inhibition of COX1 (unknown origin) up to 25 uM
[18] = biological target: Protein kinase C alpha type (Homo sapiens) (UniProt P17252); assay: Inhibition of PKCalpha (unknown origin) at 30 uM
[19] = biological target: Mitogen-activated protein kinase 3 (Homo sapiens) (UniProt P27361); assay: Inhibition of ERK1 (unknown origin) at 30 uM
Chain of Mitogen-activated protein kinase 3 (Homo sapiens) (P27361 whole entry, canonical isoform): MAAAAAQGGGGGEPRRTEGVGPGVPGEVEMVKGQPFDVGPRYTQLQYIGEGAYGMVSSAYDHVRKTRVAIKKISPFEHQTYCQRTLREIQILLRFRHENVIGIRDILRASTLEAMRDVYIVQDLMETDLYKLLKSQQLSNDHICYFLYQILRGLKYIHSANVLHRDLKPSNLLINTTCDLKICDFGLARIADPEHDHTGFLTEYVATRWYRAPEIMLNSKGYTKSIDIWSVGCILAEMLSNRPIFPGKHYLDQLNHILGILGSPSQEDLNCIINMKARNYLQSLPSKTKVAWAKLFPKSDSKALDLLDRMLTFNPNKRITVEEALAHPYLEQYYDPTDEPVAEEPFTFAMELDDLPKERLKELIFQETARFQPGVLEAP

[20] = biological target: Phosphatidylinositol 4,5-bisphosphate 3-kinase catalytic subunit gamma isoform (Homo sapiens) (UniProt P48736); assay: Inhibition of PI3Kgamma (unknown origin) at 30 uM
Chain of Phosphatidylinositol 4,5-bisphosphate 3-kinase catalytic subunit gamma isoform (Homo sapiens) (P48736 whole entry, looked up, canonical isoform): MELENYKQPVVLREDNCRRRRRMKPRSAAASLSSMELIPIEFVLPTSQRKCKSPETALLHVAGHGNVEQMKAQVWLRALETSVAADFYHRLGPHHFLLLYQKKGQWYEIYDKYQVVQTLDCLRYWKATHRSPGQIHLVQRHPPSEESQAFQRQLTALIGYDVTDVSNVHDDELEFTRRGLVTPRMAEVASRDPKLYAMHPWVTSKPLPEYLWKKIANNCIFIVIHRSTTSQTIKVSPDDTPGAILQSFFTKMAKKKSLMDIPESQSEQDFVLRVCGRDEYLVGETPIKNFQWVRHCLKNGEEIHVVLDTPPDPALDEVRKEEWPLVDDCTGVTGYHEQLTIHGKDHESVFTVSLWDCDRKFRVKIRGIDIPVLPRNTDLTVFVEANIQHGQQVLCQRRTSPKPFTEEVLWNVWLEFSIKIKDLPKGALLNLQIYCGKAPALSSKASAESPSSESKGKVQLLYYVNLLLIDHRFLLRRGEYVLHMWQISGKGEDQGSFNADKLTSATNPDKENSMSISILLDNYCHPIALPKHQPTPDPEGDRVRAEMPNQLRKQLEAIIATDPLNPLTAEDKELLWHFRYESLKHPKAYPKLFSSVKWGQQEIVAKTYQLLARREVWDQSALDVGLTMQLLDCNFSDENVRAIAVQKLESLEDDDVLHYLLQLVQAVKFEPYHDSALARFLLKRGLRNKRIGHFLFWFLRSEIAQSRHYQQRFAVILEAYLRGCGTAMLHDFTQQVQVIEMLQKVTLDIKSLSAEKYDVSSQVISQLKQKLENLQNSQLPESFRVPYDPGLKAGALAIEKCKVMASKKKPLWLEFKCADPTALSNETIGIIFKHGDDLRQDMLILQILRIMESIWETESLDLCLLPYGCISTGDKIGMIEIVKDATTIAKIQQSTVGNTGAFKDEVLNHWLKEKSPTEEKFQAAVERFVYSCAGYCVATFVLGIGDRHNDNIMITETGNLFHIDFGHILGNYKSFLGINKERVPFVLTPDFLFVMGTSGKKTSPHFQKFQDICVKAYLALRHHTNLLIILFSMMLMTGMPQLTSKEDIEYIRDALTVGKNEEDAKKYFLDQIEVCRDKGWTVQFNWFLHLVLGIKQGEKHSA

- inhibition [2]: inactive
- inhibition [3]: inactive
- clearance [4]: 0.683 mL/min/kg
- inhibition [6]: inactive
- inhibition [7]: inactive
- inhibition [9]: inactive
- inhibition [10]: inactive
- inhibition [11]: inactive
- inhibition [12]: inactive
- inhibition [13]: inactive
- inhibition [14]: inactive
- half-life [16]: 13.3 h
- inhibition [17]: inactive
- inhibition [18]: 62%
- inhibition [19]: inactive
- inhibition [20]: inactive
SMILES: O=C(Nc1ccc2c(c1)B(O)OC2)c1c(C(F)(F)F)ccc(Cl)c1F
- inhibition (Mus musculus [1]): Active
- inhibition in vivo at 30 mg/kg (Mus musculus [5]): 68%
- inhibition in vivo at 30 mg/kg (Mus musculus [8]): 95%
- inhibition (Mus musculus [15]): Dose-dependent effect
